Test results as given in ChEMBL document CHEMBL5356988, “Diversely functionalized isoquinolines and their core-embedded heterocyclic frameworks: a privileged scaffold for medicinal chemistry” (RSC Med Chem, 2023).

How the values were obtained:
Interleukin-5 = target: T1, Interleukin-5 (Homo sapiens, UniProt P05113); experiment: Inhibition of IL-5 (unknown origin)
T1 sequence (P05113 whole entry): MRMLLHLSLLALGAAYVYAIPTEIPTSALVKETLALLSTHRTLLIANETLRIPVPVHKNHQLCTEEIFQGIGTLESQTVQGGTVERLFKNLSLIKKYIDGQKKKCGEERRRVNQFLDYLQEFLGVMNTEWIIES

HGC-27 = experiment: Antiproliferative activity against human HGC-27 cells assessed as reduction in cell viability by CCK-8 assay; assay type: functional, cell-based

IC50 (Interleukin-5) [nM]	SMILES	IC50 (HGC-27) [nM]
2000	C=C1Oc2c(ccc3cc(C)ncc23)C1=O	
	Fc1ccc(/C=C/c2nccc3ccccc23)c(F)c1	40
	Fc1ccc(/C=C/c2nccc3ccccc23)cc1F	80
